Test results reported in patent US20100267561A1, “HERBICIDAL PYRIDAZINONE DERIVATIVES” (priority 2007, published 2010).

How the values were obtained:
Experiment in all cases: Test B pre-/postemergence plant response
Type in all cases: in vivo
[1] = tested on: blackgrass (Alopecurus myosuroides); details: for Blackgrass plant response rating: 8 g ai/ha
How it was run: (§1)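 Visual scoring from 0 (no effect) to 100 (complete control) against untreated controls was done 13 to 15 days after greenhouse treatment. Chemicals were formulated in a surfactant-containing non-phytotoxic solvent and applied to soil preemergence or to 1- to 4-leaf (2-18 cm) plants postemergence.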

[2] = tested on: catchweed bedstraw (Galium aparine); details: Preemergence, scale 0 to 100
How it was run: as §1

[3] = tested on: common ragweed (Ambrosia elation); details: for Ragweed plant response rating: 8 g ai/ha
How it was run: as §1

[4] = tested on: corn (Zea mays); details: for Corn plant response rating: 8 g ai/ha
How it was run: as §1

[5] = tested on: downy bromegrass (Bromus tectorum); details: for Bromegrass, Downy plant response rating: 8 g ai/ha
How it was run: as §1

[6] = tested on: giant foxtail (Setaria faberii); details: for Foxtail, Giant plant response rating: 8 g ai/ha
How it was run: as §1

[7] = tested on: goosegrass (Eleusine indica); details: for Goosegrass plant response rating: 8 g ai/ha
How it was run: as §1

[8] = tested on: green foxtail (Setaria viridis); details: for Foxtail, Green plant response rating: 8 g ai/ha
How it was run: as §1

[9] = tested on: lambsquarters (Chenopodium album); details: for Lambsquarters plant response rating: 8 g ai/ha
How it was run: as §1

[10] = tested on: morningglory (Ipomoea coccinea); details: for Morningglory plant response rating: 8 g ai/ha
How it was run: as §1

[11] = tested on: pigweed (Amaranthus retroflexus); details: for Pigweed plant response rating: 8 g ai/ha
How it was run: as §1

[12] = tested on: surinam grass (Brachiaria decumbens); details: for Surinam Grass plant response rating: 8 g ai/ha
How it was run: as §1

[13] = tested on: wild oat (Avena fatua); details: for Oat, Wild plant response rating: 8 g ai/ha
How it was run: as §1

[14] = tested on: woolly cupgrass (Eriochloa villosa)
How it was run: as §1

[15] = Postemergence, 16 g ai/ha, scale 0 to 100
[16] = Postemergence, 31 g ai/ha, scale 0 to 100, 0 no effect, 100 complete control
[17] = Postemergence, 62 g ai/ha, scale 0 to 100, 0 no effect, 100 complete control
[18] = Preemergence, 16 g ai/ha, scale 0 to 100 (0 no effect, 100 complete control)
[19] = Preemergence, 31 g ai/ha, 0 to 100 scale, 0 no effect, 100 complete control
[20] = Preemergence, 62 g ai/ha, scale 0 to 100
[21] = Preemergence, 31 g ai/ha, scale 0 to 100 (0 no effect, 100 complete control)

Structure (SMILES): Cc1cc(-c2ccc(C(F)(F)F)c(F)c2)nn1-c1c(O)c(C(F)(F)F)nn(C)c1=O [Compound 44]
- Blackgrass plant response rating ([1]; postemergence, 0-100 scale): 85
- Plant response rating, Blackgrass [1, 15]: 90
- Plant response rating, Blackgrass [1, 16]: 98
- Plant response rating, Blackgrass [1, 17]: 98
- Plant response rating, Blackgrass [1, 18]: 100
- Plant response rating, Blackgrass [1, 19]: 100
- Plant response rating, Blackgrass [1, 20]: 100
- Blackgrass plant response rating ([1]; Preemergence, scale 0 to 100): 90
- Plant response rating, Galium ([2]; 62 g ai/ha): 0
- Galium plant response rating ([2]; 8 g ai/ha): 0
- Ragweed plant response rating ([3]; postemergence, 0-100 scale): 0
- Plant response rating, Ragweed [3, 15]: 0
- Plant response rating, Ragweed [3, 16]: 0
- Plant response rating, Ragweed [3, 17]: 0
- Plant response rating, Ragweed [3, 18]: 0
- Plant response rating, Ragweed [3, 21]: 0
- Plant response rating, Ragweed [3, 20]: 20
- Ragweed plant response rating ([3]; Preemergence, scale 0 to 100): 0
- Corn plant response rating ([4]; postemergence, 0-100 scale): 85
- Plant response rating, Corn [4, 15]: 95
- Plant response rating, Corn [4, 16]: 95
- Plant response rating, Corn [4, 17]: 95
- Plant response rating, Corn [4, 18]: 55
- Plant response rating, Corn [4, 19]: 65
- Plant response rating, Corn [4, 20]: 85
- Corn plant response rating ([4]; Preemergence, scale 0 to 100): 0
- Bromegrass, Downy plant response rating ([5]; postemergence, 0-100 scale): 40
- Plant response rating, Bromegrass, Downy [5, 15]: 60
- Plant response rating, Bromegrass, Downy [5, 16]: 70
- Plant response rating, Bromegrass, Downy [5, 17]: 90
- Plant response rating, Bromegrass, Downy [5, 18]: 20
- Plant response rating, Bromegrass, Downy [5, 19]: 60
- Plant response rating, Bromegrass, Downy [5, 20]: 85
- Bromegrass, Downy plant response rating ([5]; Preemergence, scale 0 to 100): 0
- Foxtail, Giant plant response rating ([6]; postemergence, 0-100 scale): 95
- Plant response rating, Foxtail, Giant [6, 15]: 98
- Plant response rating, Foxtail, Giant [6, 16]: 100
- Plant response rating, Foxtail, Giant [6, 17]: 100
- Plant response rating, Foxtail, Giant [6, 18]: 0
- Plant response rating, Foxtail, Giant [6, 19]: 0
- Plant response rating, Foxtail, Giant [6, 20]: 0
- Foxtail, Giant plant response rating ([6]; Preemergence, scale 0 to 100): 0
- Goosegrass plant response rating ([7]; postemergence, 0-100 scale): 60
- Plant response rating, Goosegrass [7, 15]: 60
- Plant response rating, Goosegrass [7, 16]: 75
- Plant response rating, Goosegrass [7, 17]: 90
- Plant response rating, Goosegrass [7, 18]: 0
- Plant response rating, Goosegrass [7, 19]: 0
- Plant response rating, Goosegrass [7, 20]: 0
- Goosegrass plant response rating ([7]; Preemergence, scale 0 to 100): 0
- Foxtail, Green plant response rating ([8]; postemergence, 0-100 scale): 75
- Plant response rating, Foxtail, Green [8, 15]: 95
- Plant response rating, Foxtail, Green [8, 16]: 95
- Plant response rating, Foxtail, Green [8, 17]: 100
- Plant response rating, Foxtail, Green [8, 18]: 98
- Plant response rating, Foxtail, Green [8, 19]: 100
- Plant response rating, Foxtail, Green [8, 20]: 100
- Foxtail, Green plant response rating ([8]; Preemergence, scale 0 to 100): 40
- Lambsquarters plant response rating ([9]; postemergence, 0-100 scale): 0
- Plant response rating, Lambsquarters [9, 15]: 0
- Plant response rating, Lambsquarters [9, 16]: 0
- Plant response rating, Lambsquarters [9, 17]: 0
- Plant response rating, Lambsquarters [9, 18]: 0
- Plant response rating, Lambsquarters [9, 19]: 0
- Plant response rating, Lambsquarters [9, 20]: 0
- Lambsquarters plant response rating ([9]; Preemergence, scale 0 to 100): 0
- Morningglory plant response rating ([10]; postemergence, 0-100 scale): 0
- Plant response rating, Morningglory [10, 15]: 0
- Plant response rating, Morningglory [10, 16]: 0
- Plant response rating, Morningglory [10, 17]: 0
- Plant response rating, Morningglory [10, 18]: 0
- Plant response rating, Morningglory [10, 20]: 0
- Morningglory plant response rating ([10]; Preemergence, scale 0 to 100): 0
- Pigweed plant response rating ([11]; postemergence, 0-100 scale): 0
- Plant response rating, Pigweed [11, 15]: 0
- Plant response rating, Pigweed [11, 16]: 0
- Plant response rating, Pigweed [11, 17]: 0
- Plant response rating, Pigweed [11, 18]: 0
- Plant response rating, Pigweed [11, 21]: 0
- Plant response rating, Pigweed [11, 20]: 0
- Pigweed plant response rating ([11]; Preemergence, scale 0 to 100): 0
- Surinam Grass plant response rating ([12]; postemergence, 0-100 scale): 98
- Plant response rating, Surinam Grass [12, 15]: 100
- Plant response rating, Surinam Grass [12, 17]: 100
- Plant response rating, Surinam Grass [12, 18]: 0
- Plant response rating, Surinam Grass [12, 21]: 0
- Plant response rating, Surinam Grass ([12]; Preemergence, 62 g ai/ha, 0 to 100 scale, 0 no effect, 100 complete control): 20
- Surinam Grass plant response rating ([12]; Preemergence, scale 0 to 100): 0
- Oat, Wild plant response rating ([13]; postemergence, 0-100 scale): 90
- Plant response rating, Oat, Wild [13, 15]: 95
- Plant response rating, Oat, Wild [13, 16]: 100
- Plant response rating, Oat, Wild [13, 17]: 100
- Plant response rating, Oat, Wild [13, 18]: 80
- Plant response rating, Oat, Wild [13, 21]: 85
- Plant response rating, Oat, Wild [13, 20]: 90
- Oat, Wild plant response rating ([13]; Preemergence, scale 0 to 100): 25
- Cupgrass, Woolly plant response rating ([14]; 8 g ai/ha, postemergence, 0-100 scale): 98
- Plant response rating, Cupgrass, Woolly [14, 15]: 98
- Plant response rating, Cupgrass, Woolly [14, 16]: 100
- Plant response rating, Cupgrass, Woolly [14, 17]: 100
- Plant response rating, Cupgrass, Woolly [14, 18]: 0
- Plant response rating, Cupgrass, Woolly [14, 19]: 0
- Plant response rating, Cupgrass, Woolly [14, 20]: 100
